In ChEMBL document CHEMBL4007384, “Synthesis and optimization of furano[3,2-d]pyrimidines as selective spleen tyrosine kinase (Syk) inhibitors” (Bioorg Med Chem Lett, 2016):

Columns and labels:
[1] = biological target: T1, Inhibitor of nuclear factor kappa-B kinase subunit epsilon (Homo sapiens, UniProt Q14164); assay: Inhibition of IKKE (unknown origin) after 60 mins by TR-FRET assay
T1 sequence (Q14164 whole entry): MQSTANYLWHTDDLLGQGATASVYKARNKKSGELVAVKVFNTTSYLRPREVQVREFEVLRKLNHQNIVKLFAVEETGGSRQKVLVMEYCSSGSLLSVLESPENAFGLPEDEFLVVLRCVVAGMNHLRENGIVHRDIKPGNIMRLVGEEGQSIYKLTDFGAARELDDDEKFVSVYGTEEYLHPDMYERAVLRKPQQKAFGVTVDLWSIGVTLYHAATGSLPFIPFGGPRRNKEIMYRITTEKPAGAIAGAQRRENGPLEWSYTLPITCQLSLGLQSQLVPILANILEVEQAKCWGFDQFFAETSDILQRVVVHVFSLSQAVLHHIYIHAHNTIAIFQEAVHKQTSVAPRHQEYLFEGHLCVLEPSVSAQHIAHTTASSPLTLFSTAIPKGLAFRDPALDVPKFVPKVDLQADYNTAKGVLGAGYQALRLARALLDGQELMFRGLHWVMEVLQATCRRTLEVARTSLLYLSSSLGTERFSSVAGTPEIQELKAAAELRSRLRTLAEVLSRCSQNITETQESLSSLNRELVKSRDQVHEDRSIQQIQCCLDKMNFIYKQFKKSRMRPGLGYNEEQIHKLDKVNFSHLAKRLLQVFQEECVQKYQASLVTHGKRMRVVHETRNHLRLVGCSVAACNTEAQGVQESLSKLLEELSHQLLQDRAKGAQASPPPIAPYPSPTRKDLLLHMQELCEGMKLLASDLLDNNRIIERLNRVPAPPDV

[2] = biological target: MAP kinase p38 (Homo sapiens, UniProt O15264+Q15759+Q16539+P53778); assay: Inhibition of p38 (unknown origin) after 60 mins by TR-FRET assay
[3] = biological target: Tyrosine-protein kinase SYK (Homo sapiens, UniProt P43405)
Description: Inhibition of Syk (unknown origin) after 60 mins by TR-FRET assay

[4] = biological target: T2, Activin receptor type-1 (Homo sapiens, UniProt Q04771); assay: Inhibition of ACVR1 (unknown origin) after 60 mins by TR-FRET assay
T2 sequence (Q04771 whole entry): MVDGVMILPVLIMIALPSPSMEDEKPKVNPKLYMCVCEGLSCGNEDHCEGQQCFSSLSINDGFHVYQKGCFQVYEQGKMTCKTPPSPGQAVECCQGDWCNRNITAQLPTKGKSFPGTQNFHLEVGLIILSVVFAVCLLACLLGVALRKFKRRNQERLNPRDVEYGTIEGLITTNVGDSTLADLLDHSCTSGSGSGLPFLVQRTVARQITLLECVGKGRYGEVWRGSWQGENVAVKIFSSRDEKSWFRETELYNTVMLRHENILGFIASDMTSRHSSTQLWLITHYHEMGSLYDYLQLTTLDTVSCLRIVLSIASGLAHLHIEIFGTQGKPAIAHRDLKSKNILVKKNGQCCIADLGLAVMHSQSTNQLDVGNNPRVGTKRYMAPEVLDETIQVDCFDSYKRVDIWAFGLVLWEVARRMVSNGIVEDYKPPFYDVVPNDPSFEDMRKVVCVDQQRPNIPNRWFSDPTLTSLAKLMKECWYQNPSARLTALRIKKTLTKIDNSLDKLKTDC

[5] = biological target: AMP-activated protein kinase, AMPK; assay: Inhibition of AMPK (unknown origin) after 60 mins by TR-FRET assay; design: species or system Homo sapiens
[6] = biological target: Wee1-like protein kinase (Homo sapiens, UniProt P30291); assay: Inhibition of Wee1 (unknown origin) after 60 mins by TR-FRET assay
Sequence of Wee1-like protein kinase (P30291 whole entry): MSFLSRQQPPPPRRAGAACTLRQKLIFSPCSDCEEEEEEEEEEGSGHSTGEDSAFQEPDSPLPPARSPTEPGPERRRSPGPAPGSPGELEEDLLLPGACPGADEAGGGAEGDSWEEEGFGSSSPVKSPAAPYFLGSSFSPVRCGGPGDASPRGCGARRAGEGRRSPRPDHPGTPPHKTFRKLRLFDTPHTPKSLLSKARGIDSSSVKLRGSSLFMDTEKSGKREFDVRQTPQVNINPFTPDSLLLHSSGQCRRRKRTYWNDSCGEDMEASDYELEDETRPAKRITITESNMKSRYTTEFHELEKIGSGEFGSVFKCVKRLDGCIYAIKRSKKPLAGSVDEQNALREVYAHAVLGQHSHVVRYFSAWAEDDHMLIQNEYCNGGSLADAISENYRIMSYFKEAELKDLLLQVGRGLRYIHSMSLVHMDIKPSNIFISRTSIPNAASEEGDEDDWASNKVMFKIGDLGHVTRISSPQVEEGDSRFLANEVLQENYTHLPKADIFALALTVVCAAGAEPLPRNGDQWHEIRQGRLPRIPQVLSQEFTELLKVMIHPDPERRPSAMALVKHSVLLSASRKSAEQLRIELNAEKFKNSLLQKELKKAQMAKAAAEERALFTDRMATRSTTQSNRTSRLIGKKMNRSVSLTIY

[7] = biological target: T3, Serine/threonine-protein kinase Nek2 (Homo sapiens, UniProt P51955); assay: Inhibition of NEK2 (unknown origin) after 60 mins by TR-FRET assay
T3 sequence (P51955 whole entry): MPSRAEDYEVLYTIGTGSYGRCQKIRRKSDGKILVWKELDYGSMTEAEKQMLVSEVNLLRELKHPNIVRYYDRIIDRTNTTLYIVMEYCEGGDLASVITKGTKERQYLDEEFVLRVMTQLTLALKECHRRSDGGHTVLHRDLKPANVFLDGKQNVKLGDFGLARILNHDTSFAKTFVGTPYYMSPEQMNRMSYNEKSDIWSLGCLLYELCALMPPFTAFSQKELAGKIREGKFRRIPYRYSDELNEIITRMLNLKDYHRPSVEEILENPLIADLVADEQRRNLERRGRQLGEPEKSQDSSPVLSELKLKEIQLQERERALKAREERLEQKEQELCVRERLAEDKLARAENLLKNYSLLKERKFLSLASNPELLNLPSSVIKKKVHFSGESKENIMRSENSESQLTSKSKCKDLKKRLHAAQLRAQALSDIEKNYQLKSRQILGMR

[8] = biological target: Dual specificity tyrosine-phosphorylation-regulated kinase 1A (Homo sapiens, UniProt Q13627); assay: Inhibition of DYRK1A (unknown origin) after 60 mins by TR-FRET assay
[9] = biological target: T4, Tyrosine-protein kinase receptor TYRO3 (Homo sapiens, UniProt Q06418); assay: Inhibition of TYRO3 (unknown origin) after 60 mins by TR-FRET assay
T4 sequence (Q06418 whole entry): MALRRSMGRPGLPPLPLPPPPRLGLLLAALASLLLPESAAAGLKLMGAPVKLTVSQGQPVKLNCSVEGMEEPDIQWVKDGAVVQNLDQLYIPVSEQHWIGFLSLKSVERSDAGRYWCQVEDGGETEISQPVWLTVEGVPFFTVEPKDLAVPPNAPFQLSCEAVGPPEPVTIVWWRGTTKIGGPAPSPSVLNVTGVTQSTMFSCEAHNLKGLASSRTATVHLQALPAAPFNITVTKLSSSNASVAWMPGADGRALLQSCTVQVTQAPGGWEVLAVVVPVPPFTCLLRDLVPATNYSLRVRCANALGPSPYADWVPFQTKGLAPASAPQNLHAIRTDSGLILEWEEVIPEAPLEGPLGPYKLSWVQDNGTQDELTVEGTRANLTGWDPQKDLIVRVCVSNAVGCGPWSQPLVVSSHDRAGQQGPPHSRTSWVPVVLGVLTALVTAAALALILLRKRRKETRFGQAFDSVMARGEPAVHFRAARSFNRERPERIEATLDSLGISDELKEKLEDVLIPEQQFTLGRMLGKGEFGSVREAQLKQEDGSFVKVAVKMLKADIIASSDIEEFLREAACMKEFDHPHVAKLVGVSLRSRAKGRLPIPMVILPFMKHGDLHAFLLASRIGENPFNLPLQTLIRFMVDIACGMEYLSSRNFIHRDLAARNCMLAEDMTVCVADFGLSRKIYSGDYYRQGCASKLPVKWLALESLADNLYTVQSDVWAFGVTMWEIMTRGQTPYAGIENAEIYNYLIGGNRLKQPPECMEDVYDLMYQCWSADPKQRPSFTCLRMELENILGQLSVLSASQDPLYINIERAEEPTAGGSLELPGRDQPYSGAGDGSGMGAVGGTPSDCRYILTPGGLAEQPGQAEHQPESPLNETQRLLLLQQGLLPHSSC

IC50 [1] [µM] | IC50 [2] [µM] | IC50 [3] [µM] | IC50 [4] [µM] | IC50 [5] [µM] | IC50 [6] [µM] | IC50 [7] [µM] | IC50 [8] [µM] | IC50 [9] [µM] | SMILES
3.43 | > 10 | 0.009 | > 10 | > 10 | 9.88 | > 10 | > 10 | > 10 | CC1(C)OCC(=O)Nc2cc(Nc3nc(NCC(F)(F)F)c4occc4n3)ccc21
> 10 | > 10 | 0.097 | > 10 | > 10 | > 10 | > 10 | 4.86 | 3.21 | FC(F)(F)CNc1nc(Nc2ccc3cn[nH]c3c2)nc2ccoc12
> 10 | > 10 |  | > 10 | > 10 | > 10 | > 10 | > 10 | 4.14 | Cc1n[nH]c2cc(Nc3nc(NC4CC4)c4occc4n3)ccc12
> 10 |  | 0.069 | > 10 | > 10 | > 10 | > 10 | > 10 | > 10 | FC(F)(F)CNc1nc(Nc2ccc(N3CCOCC3)c(Cl)c2)nc2ccoc12
